Test results taken from patent US20060142188A1 (Memory Pharmaceuticals Corporation, priority 2003, published 2006).

What was measured:
[1] = biological target: T1, mutant (L270T) alpha7 nAchR (Macaca mulatta, UniProt Q866A2, L270T); experiment: FLIPR functional measurement of mutant mkα7/L270T stably expressed in QM7 cells; format: cell-based, rhesus monkey; settings: Fluo-3AM, FIG. 7
T1 construct: expressed in transfected cells
Description: (§1) QM 7 cells were routinely grown as monolayers in minimum essential medium 199 supplemented with 5% FBS, 2% tryptose phosphate broth, 1% DMSO, penicillin (100 IU/ml) and were passaged every 3-4 days. Transfections with either rhesus monkey wild type alpha7 nAchR (mkα7) or mutant alpha7 nAchR (mkα7/L270T) were performed using Lipofectamine PLUS Kit (Invitrogen). Twenty-four hours after the transfection, cells were split for stable selection with 1 mg/ml G418. Single colonies were isolated and propagated. The expression of mkα7/L270T was identified with FLIPR for fluorescence changes after addition of agonist. The expression of mkα7 was identified by radioligand binding to [^3H]-methyllycaconitine (Virginio, C., A., Giacometti, A. et al. (2002). Pharmacological properties of rat alpha7 nicotinic receptors expressed in native and recombinant cell systems, Eur, J. Pharmacol. 445(3), 153-161.)
Cells were seeded into 96 well black wall and clear-bottom plates (Costar) coated with poly-D-lysine at a density of 20,000 cells per well and cultured overnight. […] The fluorescence was monitored (λex=488 […]) for three minutes immediately after the compound addition. The relative fluorescence unit (RFU) was measured as peak fluorescence intensity minus basal fluorescence intensity. […]

[2] = biological target: T2, rhesus monkey wild-type alpha-7 nACh receptor (Macaca mulatta, UniProt Q866A2); experiment: Patch clamp net charge analysis of wild-type mkα7 in stably transfected QM7 cells; format: cell-based; settings: wild-type alpha-7 clone #1, dose response curve, FIG. 8, normalized to 1 mM ACh
T2 construct: expressed in transfected cells
Description: as §1
Stably transfected QM7 cells grown on cover slips and expressing wild-type rhesus monkey alpha7 receptors were incubated at 37° C. in the presence of 5% CO2. Individual cover slips were removed for function analysis and placed in a recording buffer consisting of 140 mM NaCl, 5 mM KCl, 10 mM HEPES, 2 mM CaCl2, 1 mM MgCl2, 100 mM glucose titrated to pH 7.3 and perfused at 2-3 ml/min. […]

Row | SMILES | EC50 compared with nicotine [1] | EC50 [2] [µM]
1 | COc1ccc(/C=C2\CCCN=C2c2cccnc2)c(OC)c1 [GTS-21] | better or comparable to that of nicotine | 
2 | CC(=O)OCC[N+](C)(C)C [acetylcholine] |  | 38
